Values of other authors as cited in publication PMC11767697, “Radiocobalt-Labeling of a Polypyridylamine Chelate Conjugated to GE11 for EGFR-Targeted Theranostics” (Molecules, 2025).

Conditions: Co(II) complex
Description: The promising therapeutic properties of the AEE, ^58mCo (T1/2 = 9.1 h), have been theoretically predicted and confirmed by in vitro and in vivo experiments using PSMA and octreotide conjugates of DOTA [[2],[11 ...

stability (binding) constant Log(β) (comparable conditions) | stability constant Log(β) | Compound
16.1 |  | O=C([O-])CN(CCN(CC(=O)[O-])CC(=O)[O-])CC(=O)[O-].[Co+2] [[Co^II(EDTA)]^2-]
 | 16.6 | [Co+2].c1ccc(CN(CCN(Cc2ccccn2)Cc2ccccn2)Cc2ccccn2)nc1 [[Co^II(TPEN)]^2+]
